Mortality data for 14 compounds are collected here from US9107410B2, “Pesticidal compositions and processes related thereto” (Dow AgroSciences LLC, priority 2011, dated 2015).

Assay type in all cases: in vivo
Test [1] relates to Beet Armyworm (BAW) (Spodoptera exigua). Put plainly: Bioassay on beet armyworm (BAW), 128-well diet tray assay. Conditions: 168 h, read-out: % Mortality BAW 50 μg/cm^2. The protocol:
(§1) Certain molecules disclosed in this document were tested against BAW and CEW using procedures described in the following examples. In the reporting of the results, the “BAW & CEW Rating Table” was used (See Table Section).
Bioassays on BAW (Spodoptera exigua)
Bioassays on BAW were conducted using a 128-well diet tray assay. One to five second instar BAW larvae were placed in each well (3 mL) of the diet tray that had been previously filled with 1 mL of artificial diet to which 50 μg/cm^2 of the test compound (dissolved in 50 μL of 90:10 acetone-water mixture) had been applied (to each of eight wells) and then allowed to dry. Trays were covered with a clear self-adhesive cover, and held at 25° C., 14:10 light-dark for five to seven days. Percent mortality was recorded for the larvae in each well; activity in the eight wells was then averaged. The results are indicated in the table entitled “Table: Bio Results” (See Table Section).

Test [2] deals with Green Peach Aphid (GPA) (Myzus persicae). Put plainly: Bioassay on green peach aphid (GPA), foliar spray on cabbage seedlings. The settings on record: 72 h, read-out: % Mortality GPA 200 ppm. Here is the method:
Certain molecules disclosed in this document were tested against GPA using procedures described in the following example. In the reporting of the results, the “GPA Rating Table” was used (See Table Section).
Cabbage seedlings grown in 3-inch pots, with 2-3 small (3-5 cm) true leaves, were used as test substrate. The seedlings were infested with 20-50 GPA (wingless adult and nymph stages) one day prior to chemical application. Four pots with individual seedlings were used for each treatment. Test compounds (2 mg) were dissolved in 2 mL of acetone/methanol (1:1) solvent, forming stock solutions of 1000 ppm test compound. The stock solutions were diluted 5× with 0.025% Tween 20 in H2O to obtain the solution at 200 ppm test compound. A hand-held aspirator-type sprayer was used for spraying a solution to both sides of […] leaves until runoff. Reference plants (solvent check) were sprayed with the diluent only containing 20% by volume of acetone/methanol (1:1) solvent. Treated plants were held in a holding room for three days at approximately 25° C. and ambient relative humidity (RH) prior to grading. Evaluation was conducted by counting the number of live aphids per plant under a microscope. Percent Control was measured by using Abbott's correction formula (W. S. Abbott, “A Method of Computing the Effectiveness of an Insecticide” J. Econ. Entomol. 18 (1925), pp. 265-267) as follows. Corrected % Control=100*(X−Y)/X • where • X=No. of live aphids on solvent check plants and • Y=No. of live aphids on treated plants

For test [3], the system named is Corn Earworm (CEW) (Helicoverpa zea). As to the kind of experiment: Bioassay on corn earworm (CEW), 128-well diet tray assay. Conditions: 168 h, read-out: % Mortality CEW 50 μg/cm^2. The protocol:
as §1
Bioassays on CEW (Helicoverpa zea)
Bioassays on CEW were conducted using a 128-well diet tray assay. One to five second instar CEW larvae were placed in each well (3 mL) of the diet tray that had been previously filled with 1 mL of artificial diet to which 50 μg/cm^2 of the test compound (dissolved in 50 μL of 90:10 acetone-water mixture) had been applied (to each of eight wells) and then allowed to dry. Trays were covered with a clear self-adhesive cover, and held at 25° C., 14:10 light-dark for five to seven days. Percent mortality was recorded for the larvae in each well; activity in the eight wells was then averaged. The results are indicated in the table entitled “Table: Bio Results” (See Table Section).

Setting [4] is: 50 μg/cm^2 on artificial diet, second instar larvae, 25° C., five to seven days, average of eight wells.
Where [5] appears, read: 200 ppm foliar spray on cabbage seedlings, graded after three days, Abbott corrected % control.

Like-named read-outs stand apart in the source and are kept apart here.

As to `CC(C)c1ccccc1OC(=O)NC1CC1c1ccc(-c2ncn(-c3ccc(OC(F)(F)F)cc3)n2)cc1` (stereo not drawn) [Compound 29, 2-Isopropylphenyl 2-(4-(1-(4-(trifluoromethoxy)phenyl)-1H-1,2,4-triazol-3-yl)phenyl)-cyclopropylcarbamate], the mortality at 50 µg/cm2 in test [1] and in test [3] was 50 to 100% each time. For the same compound, the mortality at 200 ppm in test [2] (foliar) stood at 0%.

On to `Cc1cc(C)c(OC(=O)NC2CC2c2ccc(-c3ncn(-c4ccc(OC(F)(F)F)cc4)n3)cc2)c(C)c1` (stereo not drawn) [Compound 26, Mesityl 2-(4-(1-(4-(trifluoromethoxy)phenyl)-1H-1,2,4-triazol-3-yl)phenyl)cyclopropyl-carbamate], for which the figures for the mortality at 50 µg/cm2 in test [1] and in test [3] were 50 to 100% and 0 to 50%, respectively. Also, the mortality at 200 ppm in test [2] (foliar) was 0%.

Turning to `O=C(NC1CC1c1ccc(-c2ncn(-c3ccc(OC(F)(F)F)cc3)n2)cc1)Oc1c(Cl)cccc1Cl` (stereo not drawn) [Compound 28, 2,6-Dichlorophenyl 2-(4-(1-(4-(trifluoromethoxy)phenyl)-1H-1,2,4-triazol-3-yl)phenyl)-cyclopropylcarbamate], the mortality at 50 µg/cm2 in test [1] and in test [3] was 0% in each case. Besides, the mortality at 200 ppm in test [2] (foliar) was in the range of 0 to 80%.

For the compound `FC(F)(F)Oc1ccc(-n2cnc(-c3ccc(C4CC4NC(=S)Nc4ccccc4Cl)cc3)n2)cc1` (stereo not drawn) [Compound 5, 1-(2-Chlorophenyl)-3-(2-{4-[1-(4-trifluoromethoxyphenyl)-1H-[1,2,4]triazol-3-yl]phenyl}cyclopropyl)thiourea], the mortality at 50 µg/cm2 in test [1] (setting [4]) and in test [3] (setting [4]) was 50 to 100% each time. Also, in test [2] (setting [5]), the mortality at 200 ppm stood at 0%.

For `CN(C)c1ccc(NC(=S)NC2CC2c2ccc(-c3ncn(-c4ccc(OC(F)(F)F)cc4)n3)cc2)cc1` (stereo not drawn) [Compound 7, 1-(4-Dimethylaminophenyl)-3-(2-{4-[1-(4-trifluoromethoxyphenyl)-1H-[1,2,4]triazol-3-yl]phenyl}cyclopropyl)thiourea], the mortality at 50 µg/cm2 in test [1] (setting [4]) and in test [3] (setting [4]) was 50 to 100% each time. Also, the mortality at 200 ppm in test [2] (setting [5]) turned out to be 0%.

`Cc1cc(F)ccc1OC(=O)NC1CC1c1ccc(-c2ncn(-c3ccc(OC(F)(F)F)cc3)n2)cc1` (stereo not drawn) [Compound 22, 4-Fluoro-2-methylphenyl 2-(4-(1-(4-(trifluoromethoxy)phenyl)-1H-1,2,4-triazol-3-yl)-phenyl)cyclopropylcarbamate]: the mortality at 50 µg/cm2 in test [1] and in test [3] was 50 to 100% each time. Also, the mortality at 200 ppm in test [2] (foliar) is 0%.

In the case of `Cc1ccc(NC(=S)NC2CC2c2ccc(-c3ncn(-c4ccc(OC(F)(F)F)cc4)n3)cc2)c(C)c1` (stereo not drawn) [Compound 11, 1-(2,4-Dimethylphenyl)-3-(2-(4-(1-(4-(trifluoromethoxy)phenyl)-1H-1,2,4-triazol-3-yl)phenyl)cyclopropyl)thiourea], the mortality at 50 µg/cm2 in test [1] (setting [4]) and in test [3] (setting [4]) was 50 to 100% in each case. Besides, the mortality at 200 ppm in test [2] (setting [5]) is 0 to 80%.

`COC(=O)NC1CC1c1ccc(-c2ncn(-c3ccc(OC(F)(F)F)cc3)n2)cc1` (stereo not drawn) [Compound 18, Methyl 2-(4-(1-(4-(trifluoromethoxy)phenyl)-1H-1,2,4-triazol-3-yl)phenyl)cyclopropyl-carbamate]: the mortality at 50 µg/cm2 in test [1] was 0%; in test [3] it was 0 to 50%. For the same compound, the mortality at 200 ppm in test [2] (foliar) was 0%.

As for `FC(F)(F)Oc1ccc(-n2cnc(-c3ccc(C4CC4NC(=S)Nc4ccccc4)cc3)n2)cc1` (stereo not drawn) [Compound 1, 1-phenyl-3-(2-{4-[1-(4-trifluoromethoxyphenyl)-1H-[1,2,4]triazol-3-yl]phenyl}cyclopropyl)thiourea], the mortality at 50 µg/cm2 in test [1] (setting [4]) and in test [3] (setting [4]) was 50 to 100% each time. Moreover, the mortality at 200 ppm in test [2] (setting [5]) amounted to 0%.

Consider `Cc1cc(C)c(NC(=S)NC2CC2c2ccc(-c3ncn(-c4ccc(OC(F)(F)F)cc4)n3)cc2)c(C)c1` (stereo not drawn) [Compound 9, 1-(2-{4-[1-(4-Trifluoromethoxyphenyl)-1H-[1,2,4]triazol-3-yl]phenyl}-cyclopropyl)-3-(2,4,6-trimethylphenyl)thiourea], for which the mortality at 50 µg/cm2 in test [1] (setting [4]) and in test [3] (setting [4]) was 50 to 100% throughout. For the same compound, the mortality at 200 ppm in test [2] (setting [5]) was 0%.

Take `COc1ccc(OC(=O)NC2CC2c2ccc(-c3ncn(-c4ccc(OC(F)(F)F)cc4)n3)cc2)cc1` (stereo not drawn) [Compound 27, 4-Methoxyphenyl 2-(4-(1-(4-(trifluoromethoxy)phenyl)-1H-1,2,4-triazol-3-yl)phenyl)-cyclopropylcarbamate]: the mortality at 50 µg/cm2 in test [1] fell in the range of 0 to 50%; in test [3], 50 to 100%. Moreover, in test [2] (foliar), the mortality at 200 ppm amounted to 0%.

On to `O=C(NC1CC1c1ccc(-c2ncn(-c3ccc(OC(F)(F)F)cc3)n2)cc1)Oc1ccccc1C1CCCC1` (stereo not drawn) [Compound 23, 2-Cyclopentylphenyl 2-(4-(1-(4-(trifluoromethoxy)phenyl)-1H-1,2,4-triazol-3-yl)phenyl)-cyclopropylcarbamate], for which the mortality at 50 µg/cm2 was 0% in test [1] and 50 to 100% in test [3]. For the same compound, the mortality at 200 ppm in test [2] (foliar) lay within 0 to 80%.

Consider `COc1ccc(NC(=S)NC2CC2c2ccc(-c3ncn(-c4ccc(OC(F)(F)F)cc4)n3)cc2)c(C)c1` (stereo not drawn) [Compound 3, 1-(4-Methoxy-2-methylphenyl)-3-(2-{4-[1-(4-trifluoromethoxyphenyl)-1H-[1,2,4]triazol-3-yl]phenyl}cyclopropyl)thiourea], for which the mortality at 50 µg/cm2 in test [1] (setting [4]) and in test [3] (setting [4]) was 50 to 100% in each case. Further, in test [2] (setting [5]), the mortality at 200 ppm was 0 to 80%.

Consider `O=C(Nc1c(Cl)cccc1Cl)NC1CC1c1ccc(-c2ncn(-c3ccc(OC(F)(F)F)cc3)n2)cc1` (stereo not drawn) [Compound 31, 1-(2,6-Dichlorophenyl)-3-(2-(4-(1-(4-(trifluoromethoxy)phenyl)-1H-1,2,4-triazol-3-yl)phenyl)cyclopropyl)urea], for which the mortality at 50 µg/cm2 in test [1] (setting [4]) and in test [3] (setting [4]) was 0% in each case. Further, in test [2] (setting [5]), the mortality at 200 ppm was 0%.
